“Also recorded” adds a separate entry of the source.
Key:
[1] = tested on: mitochondrial activity, pAKT, protein synthesis, and bone; test: Compound profiling platform, overall profile (FIG. 15); type: cell-based; conditions: for overall profile in compound profiling (anabolic effects, agonism): 10 uM
Procedure: N=4-6 from two different experiments. […] D) Mitochondrial activity was measured in myoblasts using high content imaging with mitotracker dye after 24 treatment. New amino acid incorporation was measured with LICOR in cell western for puromycin (SunSet assay). […] N=3, mean+SEM. […] N=4, mean+SEM, 2-way ANOVA.
(§1) To avoid such effects on myogenesis, we switched myoblasts to differentiation media, and then on day 4, added 10 μM cytarabine, a chemotherapy agent that kills dividing cells, and then adding GCs on day 6 or 7 and completing assays in day 8 (FIG. 8).
(§2) Physiologically, the effects of GCs on protein balance and Glut4 translocation vary in vivo depending upon the stressor. For example, GCs mediate atrophy in response to fasting but not exercise. […] To assess protein degradation, we measured chymotrypsin-like proteasomal activity (FIG. 2, A). The activating phosphorylation of AKT at Thr308 (pAKT) was measured using a LI-COR In-Cell Western assay (FIG. 2, B and C). The rate-limiting step in insulin-mediated glucose uptake is the translocation of the glucose transporter, Glut4, to the surface membrane, which we also measured by In-Cell Western without permeabilizing the myotubes (FIG. 2, D). Surface Sensing of Translation (SUnSET) (Schmidt et al., Nat Methods 6, 275-277, 2009) assay was used to measure protein synthesis by In-Cell Western, following treatment of myotubes with a low dose of puromycin, which incorporates into translating proteins, but at a low enough level to provide a readout for global protein synthesis (FIG. 2, E). Lastly, we developed a high-content imaging assay in myoblasts stained with a MitoTracker dye, so that individual mitochondrial networks could be visualized with adequate resolution to quantitate area, segmentation, branching, and fluorescence intensity which is a measure of mitochondrial membrane potential (ψm).
Additional studies were performed to assess activities of the various compounds identified from the previous profiling.

[2] = tested on: IL-1β-induced IL-6 secretion by A549 lung cells; test: IL-1β-induced IL-6 secretion by A549 lung cells (AlphaLISA); type: cell-based; conditions: 10 μM
Source text: (§3) A) Correlation of correlation (COC) plots where each point represents the Pearson correlation coefficient, r, between a distinct gene expression or GR-peptide interaction assay with assays indicated on the x and y axes. B) The effects of all tested compounds on IL-1β-induced secretion of IL-6 (y axes) and GC-regulated phenotypes indicated on the x axes. C) The effects of all tested compounds on IL-1β-induced secretion of IL-6 (y axis) and bone mineralization (x axis). D) IL-1β-induced IL-6 production by A549 cells treated with 10 μM of the indicated compounds was compared by AlphaLISA. E-H) Myoblasts were assayed as described in FIG. 8. I) Representative myoblasts imaged during the mitochondrial potential assay. J) Plasma TNFα levels of C57BL/6 male mice treated pretreated with the indicated ligands. K) Changes in lean mass of mice in panel J were determined by whole-body NMR after an additional 18 h LPS treatment. Data shown are mean+SEM.
In order to understand whether effects on skeletal muscle could be dissociated from anti-inflammatory effects of the ligands, we profiled the compounds for suppression of IL1β-induced IL-6 secretion by A549 lung cells. Examining the correlations between assays can be used to identify dissociated assays that selectively correlate with a given phenotype, predicting discovery of dissociated ligands. […] We call this a correlation of correlations (COC) plot. […] These include recruitment of NCOA2 and NCOA3 peptides, coactivators that we and others have shown to be required for GC-dependent suppression of inflammation in different cell types (FIG. 11, A). However, for the mitochondrial assay and IL-6, there are dissociated assays shown by points that are far out from the regression line in the COC plot (FIG. 7, A). For example, interaction of CHD9 with GR predicted mitochondrial activity but not Glut4 translocation (FIG. 11, B), while interaction with the CENPR peptide selectively predicted effects on Glut4 translocation (FIG. 11, C). […] Assays that correlated with effects of the ligands on GR nuclear translocation were also highly correlated with Glut4 translocation and suppression of IL-6 secretion (FIG. 11, F). Therefore, the COC curves provide a way to identify common signaling mechanisms between different GR target tissues and signaling pathways.

[3] = tested on: primary human osteoblasts; test: Osteoblast mineralization (Alizarin Red S) from mesenchymal stem cells; type: cell-based
Procedure: (§4) A) Each dot represents the effects of a compound in the indicated assays at 10 uM. N=4-6 from two different experiments. […] C) SR11466 is efficacious at inhibiting IL-6 secretion from A549 cells. C-E). […] D) Mitochondrial activity was measured in myoblasts using high content imaging with mitotracker dye after 24 treatment. New amino acid incorporation was measured with LICOR in cell western for puromycin (SunSet assay). E) top, MMTV-luciferase reporter data. N=3, mean+SEM. Bottom, Mineralization of primary human OBs was assayed after two weeks of differentiation from MSC and two weeks of mineralization. N=4, mean+SEM, 2-way ANOVA.
As a further test for dissociation, the compounds were profiled in primary human osteoblasts for effects on osteogenesis during 4 weeks of differentiation from mesenchymal stem cells. Specifically, osteoblast mineralization was examined as follows. Human mesenchymal stem cells (MSCs) at passage 2 were maintained in growth media consisted of alpha-MEM (Life Technologies, 32561-037) supplemented with 17% FBS (Sigma-Aldrich, 12303C), 2 mM L-glutarnine (Life Technologies, 25030-081), and 100 units/mL penicillin/streptomycin (Life Technologies, 15140-122). Effect of glucocorticoid receptor modulators on osteogenic differentiation of MSCs was quantified using Alizarin Red S (Sigma-Aldrich, A5533) staining. Briefly, human MSCs were seeded in the middle 8 wells of 48-well plates at plating density of 10,000 cells per well. PBS (Life Technologies, 10010-031) was added to surrounding wells to reduce evaporation of media in the middle wells during prolonged incubation. 24 h later, growth media was replaced by osteogenic induction media (OIM) consisted of low-glucose DMEM (Life Technologies, 10567-014) supplemented with 10% FBS (Sigma-Aldrich. 12303C), 50 μg/ml L-ascorbic-2-phosphate (Sigma-Aldrich, A8960), 10 mM β-glyceroiphosphate (Sigma-Aldrich, G9891), and glucocorticoid modulators. OIM containing test compounds was replaced every week. At the end of 2 weeks, monolayers were washed with PBS (Life Technologies, 10010-031), incubated in Richard-Allan Scientific™ Neutral Buffered Formalin (10%) (Thermo Scientific, 5725) for 2 h at room temperature, washed with deionized water and stained with Alizarin Red S for 30 min at room temperature. Monolayers were then rinsed 3×with deionized water until clear, stain was then extracted with 10% (w/v) cetylpyridinium chloride (Sigma-Aldrich, C0732) in 10 mM sodium phosphate (Sigma, S5011 and S5136), pH 7.0 for 15 min at room temperature and the amount of extracted dye quantified spectroscopically at 562 nm. Spectroscopic analysis performed using a synergy™ NEO HTS Multi-Mode Microplate Reader (BioTek Instruments, Inc.).

L6 myotubes = test: Glut4 translocation to the myotube surface (In-Cell Western); type: cell-based, rat
Procedure: (§5) A) C2C12 myotubes were assayed for chymotrypsin-like proteasomal activity. […] C) Quantitation of the ICW in panel B. D) ICW for surface expression of Glut4 on L6 myotubes. E) ICW for insulin-induced incorporation of puromycin into C2C12 myotube surface proteins. F-G) High-content imaging and analysis of C2C12 myoblasts stained with a Mitotracker dye. H) Assay reproducibility from screening 22 compounds on two separate occasions. The Pearson correlation coefficient, r, and its associated p-value is indicated.
(§6) C2C12 myocytes were used in all assays, except in the Glut4 translocation assay where L6 rat myocytes were used. ICW, In-Cell Western. Also see Methods.
as §2

myoblasts = test: Myoblast proliferation and fusion into myotubes; type: cell-based
C2C12 myoblasts = test: Mitochondrial potential, high-content imaging with MitoTracker dye; type: cell-based, mouse
Procedure: as §5, §4, §2

C2C12 myotubes [4] = test: Insulin-induced protein synthesis (SUnSET, In-Cell Western) in C2C12 myotubes; type: cell-based, mouse; conditions: fasting conditions
Procedure: as §5, §6, §1, §2

pAKT in C2C12 myotubes = test: Insulin-induced pAKT (Thr308) In-Cell Western; type: cell-based, mouse
Procedure: as §5
A) Pearson correlations were calculated between the indicated variables. The different lines indicate statistically significant correlations at the corresponding p-value thresholds. Solid lines indicate positive correlations, dashed lines indicate negative correlations. […]
Physiologically, the effects of GCs on protein balance and Glut4 translocation vary in vivo depending upon the stressor. […] To assess protein degradation, we measured chymotrypsin-like proteasomal activity (FIG. 2, A). The activating phosphorylation of AKT at Thr308 (pAKT) was measured using a LI-COR In-Cell Western assay (FIG. 2, B and C). The rate-limiting step in insulin-mediated glucose uptake is the translocation of the glucose transporter, Glut4, to the surface membrane, which we also measured by In-Cell Western without permeabilizing the myotubes (FIG. 2, D). […]

[5] = Loss of lean mass after a larger dose of LPS (whole-body NMR); type: in vivo, C57BL/6 male mice; conditions: additional 18 h LPS treatment
Source text: as §3

[6] = Lactate-tolerance test (rate of glucose production); type: in vivo, C57BL/6 male mice; conditions: after overnight fast; 10 mg/kg Dex or SR16024, 50 mg/kg SR11466
Source text: A) The effects of all tested compounds on IL-1β-induced IL-6 production (x-axes) versus GR interaction with the indicated peptides. B-C) The effects of all tested compounds on the indicated GC-regulated phenotypes (x-axes) versus GR interaction with the CHD9_1023 and CENPR_1 peptides (y-axes). D-F) COC plots. Each point represents the Pearson correlation coefficient, r, between a distinct gene expression or GR-peptide interaction assay with assays indicated on the x and y axes. G) The effects of all tested compounds on IL-1β-induced IL-6 production (y-axes) versus insulin-induced protein synthesis. […] IL-β-induced IL-6 production by A549 cells treated with the indicated compounds was compared by AlphaLISA. […] Mice in panel K were subjected to a lactate-tolerance test (LTT).
We were also interested in whether the compounds would show dissociation between Glut4 translocation in skeletal muscle and gluconeogenesis in the liver, but enhanced glucose production is typically studied after weeks or months of GC treatment. However, we reasoned that an overnight fast should enable detection of effects after a single dose. […] Thus, profiling effects of GCs in the physiological context of nutrient deprivation allowed the discovery of two new types of glucocorticoids with improved profiles in skeletal muscle.

C2C12 myotubes [7] = test: Protein degradation: chymotrypsin-like proteasomal activity in C2C12 myotubes; type: cell-based, mouse
Procedure: as §5, §6, §1
as §2, with “Lastly, we developed a high-content imaging assay in myoblasts stained with a MitoTracker dye, so that individual mitochondrial networks could be visualized with adequate resolution to quantitate area, segmentation, branching, and fluorescence intensity which is a measure of mitochondrial membrane potential (ψm).” left out

[8] = background statement; cited from earlier work
LPS-induced TNFα = test: LPS-induced plasma TNFα levels in mice; type: in vivo, C57BL/6 male mice; conditions: mice pretreated with ligand
Source text: as §3

GILZ mRNA = test: GILZ gene expression; type: cell-based

Compound: CC#CC1(O)CCC2C3CCc4cc(C(=O)Nc5cccnc5C)ccc4C3C(OCc3cccc(Cl)c3)CC21C (stereo not drawn) [SR16023]
- overall profile in compound profiling (anabolic effects, agonism) [1]: anabolic effects

Compound: CC#CC1(O)CCC2C3CCc4cc(C(=O)Nc5cccnc5C)ccc4C3C(OC)CC21C (stereo not drawn) [SR15960]
- inhibition of IL-1β-induced IL-6 secretion (anti-inflammatory) [2]: fully inhibiting IL-6 secretion

Compound: C[C@]12CC[C@H]3[C@@H](CCC4=CC(=O)CC[C@@]43C)[C@@H]1CC[C@@H]2O [testosterone, reference compound]
- effect on mineralization (bone) [3]: no effect

Compound: C[C@@H]1C[C@H]2[C@@H]3CCC4=CC(=O)C=C[C@]4(C)[C@@]3(F)[C@@H](O)C[C@]2(C)[C@@]1(O)C(=O)CO [Dex, dexamethasone, reference compound]
- potency for modulating Glut4 translocation (L6 myotubes; fasting conditions): low nM
- dosing at which effects on the insulin signaling pathway are shown ([1]; myotubes, serum starvation, insulin challenge, cytarabine treatment): 1 to 10 nM
- fusion into myotubes (myoblasts): promotes fusion
- myoblast proliferation (myoblasts): strongly inhibits
- Dex concentration sufficient to produce the maximal loss of mitochondrial oxidative capacity (C2C12 myoblasts): 1 nM
- effect on mitochondrial activity / potential (C2C12 myoblasts): strongly inhibited; also recorded: reduced
- potency for modulating protein synthesis (C2C12 myotubes [4]): low nM
- insulin-mediated pAKT after 1 hr of treatment (pAKT in C2C12 myotubes; 1 hr treatment): not inhibited
- potency for modulating pAKT (pAKT in C2C12 myotubes; fasting conditions): low nM
- loss of lean mass following a larger dose of LPS [5]: significantly worsened
- rate of glucose production in lactate tolerance test [6]: increased the rate of glucose production
- effect on protein degradation (proteasomal) (C2C12 myotubes [7]): stimulated protein degradation
- concentration required for effects on protein balance in vitro [8]: 50 to 100 µM
- LPS-induced TNFα levels in the blood (LPS-induced TNFα): strongly suppressed

Compound: CC#CC1(O)CCC2C3CCc4cc(C(=O)Nc5cccnc5C)ccc4C3C(OCc3ccccc3)CC21C (stereo not drawn) [SR11469]
- overall profile in compound profiling (anabolic effects, agonism) [1]: more antagonistic SGRMs; also recorded: anabolic effects
- GILZ gene expression (GILZ mRNA): not activating GILZ
- inhibition of IL-1β-induced IL-6 secretion (anti-inflammatory) [2]: weakly anti-inflammatory

Compound: Cc1ncccc1NC(=O)c1ccc2c(c1)CC[C@@H]1C[C@@](O)(C(F)(F)F)CC[C@@]21Cc1ccccc1 [PF802, reference compound]
- effect on Glut4 translocation (L6 myotubes): slightly improved compared to Dex
- overall profile in compound profiling (anabolic effects, agonism) [1]: partial agonist
- effect on mitochondrial activity / potential (C2C12 myoblasts): strongly inhibited
- effect on protein degradation (proteasomal) (C2C12 myotubes [7]): stimulated protein degradation as strongly as Dex

Compound: CC#CC1(O)CCC2C3CCc4cc(C(=O)Nc5cccnc5C)ccc4C3C(OCC)CC21C (stereo not drawn) [SR15961]
- inhibition of IL-1β-induced IL-6 secretion (anti-inflammatory) [2]: fully inhibiting IL-6 secretion

Compound: CC#CC1(O)CCC2C3CCc4cc(C(=O)Nc5ccc(C)nc5)ccc4C3C(O)CC21C (stereo not drawn) [SR15419]
- overall profile in compound profiling (anabolic effects, agonism) [1]: anabolic effects

Compound: CC#CC1(O)CCC2C3CCc4cc(C(=O)Nc5ncccc5C)ccc4C3C(O)CC21C (stereo not drawn) [SR15438]
- overall profile in compound profiling (anabolic effects, agonism) [1]: anabolic effects
